Measurements as given in ChEMBL document CHEMBL4507276 (2021).

Assays:
[1] = target: GABA-A receptor; anion channel (Rattus norvegicus) (UniProt O09028+P15431+P18506+P18508+P19969+P20236+P23574+P23576+P28471+P28473+P30191+P62813+P63079+P63138+Q91ZM7+Q9ES14); conditions: Compound concentration 10.0 uM
[2] = target: L-type Ca2+ channel (verapamil site), Cav1.2 alpha-1C (Rattus norvegicus, UniProt P22002); assay: CA+/VERSI/R Cerep selectivity data (BI); design: mode of action inhibitor; conditions: rat brain, probe [3H](-)D888, compound concentration 20 uM, read-out: % Ctrl
[3] = target: Type-1 angiotensin II receptor (Homo sapiens) (UniProt P30556); assay: AT1/H Cerep selectivity data (BI); conditions: filed as antagonist, Compound concentration 20.0 uM
[4] = test system: Serine/threonine-protein kinase B-raf (Homo sapiens), P15056 [V600E]; assay: BRAF V599E Invitrogen selectivity data (BI); conditions: Compound concentration 3.0 uM
[5] = target: Calcium/calmodulin-dependent protein kinase type 1 (Homo sapiens) (UniProt Q14012); assay: CAMK1_A Invitrogen selectivity data (BI); conditions: Compound concentration 3.0 uM
[6] = target: cGMP-inhibited 3',5'-cyclic phosphodiesterase 3B (Homo sapiens) (UniProt Q13370); assay: PDE3B Cerep selectivity data (BI); conditions: Compound concentration 20.0 uM
[7] = target: Serine/threonine-protein kinase MARK2 (Homo sapiens) (UniProt Q7KZI7); assay: MARK2 Invitrogen selectivity data (BI); conditions: Compound concentration 3.0 uM
Sequence of Serine/threonine-protein kinase MARK2 (Homo sapiens) (Q7KZI7 whole entry): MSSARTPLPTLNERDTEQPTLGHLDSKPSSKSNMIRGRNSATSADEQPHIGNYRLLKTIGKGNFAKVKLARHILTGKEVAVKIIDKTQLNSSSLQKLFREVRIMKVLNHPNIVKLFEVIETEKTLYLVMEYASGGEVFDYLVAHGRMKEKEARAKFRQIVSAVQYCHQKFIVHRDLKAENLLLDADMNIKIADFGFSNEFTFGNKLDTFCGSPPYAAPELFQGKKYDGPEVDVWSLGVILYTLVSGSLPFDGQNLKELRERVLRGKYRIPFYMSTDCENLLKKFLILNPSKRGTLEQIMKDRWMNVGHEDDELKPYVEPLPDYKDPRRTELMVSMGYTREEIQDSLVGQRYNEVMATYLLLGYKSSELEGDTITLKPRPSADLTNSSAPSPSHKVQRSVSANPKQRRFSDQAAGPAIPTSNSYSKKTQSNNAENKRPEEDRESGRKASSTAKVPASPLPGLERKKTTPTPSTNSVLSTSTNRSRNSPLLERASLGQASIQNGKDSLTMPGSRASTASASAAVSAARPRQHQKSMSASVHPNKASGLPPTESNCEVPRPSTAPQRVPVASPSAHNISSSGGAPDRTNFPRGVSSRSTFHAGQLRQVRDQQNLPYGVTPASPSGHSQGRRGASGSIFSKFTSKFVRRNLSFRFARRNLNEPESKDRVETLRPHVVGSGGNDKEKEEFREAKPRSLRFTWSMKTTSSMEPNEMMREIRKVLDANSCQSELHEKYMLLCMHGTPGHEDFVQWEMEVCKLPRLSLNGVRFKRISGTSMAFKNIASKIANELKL

[8] = target: Homeodomain-interacting protein kinase 2 (Homo sapiens) (UniProt Q9H2X6); assay: HIPK2 Invitrogen selectivity data (BI); conditions: Compound concentration 3.0 uM
Sequence of Homeodomain-interacting protein kinase 2 (Homo sapiens) (Q9H2X6 whole entry, looked up): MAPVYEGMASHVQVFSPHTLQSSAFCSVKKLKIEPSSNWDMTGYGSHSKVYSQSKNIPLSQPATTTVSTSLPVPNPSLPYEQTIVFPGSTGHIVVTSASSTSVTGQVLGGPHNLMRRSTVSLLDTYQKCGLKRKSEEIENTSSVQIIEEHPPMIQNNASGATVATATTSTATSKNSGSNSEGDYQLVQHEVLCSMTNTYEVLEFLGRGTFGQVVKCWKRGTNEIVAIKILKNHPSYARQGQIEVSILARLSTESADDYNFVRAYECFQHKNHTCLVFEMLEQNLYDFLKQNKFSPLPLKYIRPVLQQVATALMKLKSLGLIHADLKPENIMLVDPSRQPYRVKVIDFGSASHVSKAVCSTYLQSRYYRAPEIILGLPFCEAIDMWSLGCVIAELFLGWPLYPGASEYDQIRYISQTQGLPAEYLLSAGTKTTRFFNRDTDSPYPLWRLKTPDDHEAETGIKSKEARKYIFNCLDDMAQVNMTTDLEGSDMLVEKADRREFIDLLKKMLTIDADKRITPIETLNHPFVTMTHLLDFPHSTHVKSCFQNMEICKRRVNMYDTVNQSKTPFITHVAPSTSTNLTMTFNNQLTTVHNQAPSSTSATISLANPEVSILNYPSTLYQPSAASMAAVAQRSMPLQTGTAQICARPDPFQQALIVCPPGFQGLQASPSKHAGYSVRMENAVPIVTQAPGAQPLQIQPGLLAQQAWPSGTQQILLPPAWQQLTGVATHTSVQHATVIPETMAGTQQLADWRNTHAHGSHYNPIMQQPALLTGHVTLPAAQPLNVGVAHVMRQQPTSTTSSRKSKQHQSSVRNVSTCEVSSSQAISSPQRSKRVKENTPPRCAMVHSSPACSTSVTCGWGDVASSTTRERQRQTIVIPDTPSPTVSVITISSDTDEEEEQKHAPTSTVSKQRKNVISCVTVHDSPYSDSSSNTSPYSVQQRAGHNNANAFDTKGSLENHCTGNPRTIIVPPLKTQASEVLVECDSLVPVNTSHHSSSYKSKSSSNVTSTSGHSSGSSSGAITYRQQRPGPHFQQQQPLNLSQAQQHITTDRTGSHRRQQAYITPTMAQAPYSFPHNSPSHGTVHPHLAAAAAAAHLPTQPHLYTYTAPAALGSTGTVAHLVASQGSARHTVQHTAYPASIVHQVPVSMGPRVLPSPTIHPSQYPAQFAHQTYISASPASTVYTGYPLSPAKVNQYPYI

[9] = target: Adenosine receptor A1 (Homo sapiens) (UniProt P30542); assay: A1/HU Eurofins-Panlabs selectivity data (BI); conditions: Compound concentration 10.0 uM
Sequence of Adenosine receptor A1 (Homo sapiens) (P30542 whole entry): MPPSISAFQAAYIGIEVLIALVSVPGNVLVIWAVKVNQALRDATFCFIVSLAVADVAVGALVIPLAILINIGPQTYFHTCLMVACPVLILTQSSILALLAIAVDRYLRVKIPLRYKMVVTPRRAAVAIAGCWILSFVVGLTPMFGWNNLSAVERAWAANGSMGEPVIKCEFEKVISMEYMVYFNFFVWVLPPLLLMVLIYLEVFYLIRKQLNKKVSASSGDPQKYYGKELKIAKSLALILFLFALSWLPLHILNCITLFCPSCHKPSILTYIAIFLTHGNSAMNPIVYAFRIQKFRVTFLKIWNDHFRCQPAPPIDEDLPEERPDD

[10] = target: Fibroblast growth factor receptor 3 (Homo sapiens) (UniProt P22607); assay: FGFR3 Invitrogen selectivity data (BI); conditions: Compound concentration 3.0 uM
Sequence of Fibroblast growth factor receptor 3 (Homo sapiens) (P22607 23-806 limits assumed): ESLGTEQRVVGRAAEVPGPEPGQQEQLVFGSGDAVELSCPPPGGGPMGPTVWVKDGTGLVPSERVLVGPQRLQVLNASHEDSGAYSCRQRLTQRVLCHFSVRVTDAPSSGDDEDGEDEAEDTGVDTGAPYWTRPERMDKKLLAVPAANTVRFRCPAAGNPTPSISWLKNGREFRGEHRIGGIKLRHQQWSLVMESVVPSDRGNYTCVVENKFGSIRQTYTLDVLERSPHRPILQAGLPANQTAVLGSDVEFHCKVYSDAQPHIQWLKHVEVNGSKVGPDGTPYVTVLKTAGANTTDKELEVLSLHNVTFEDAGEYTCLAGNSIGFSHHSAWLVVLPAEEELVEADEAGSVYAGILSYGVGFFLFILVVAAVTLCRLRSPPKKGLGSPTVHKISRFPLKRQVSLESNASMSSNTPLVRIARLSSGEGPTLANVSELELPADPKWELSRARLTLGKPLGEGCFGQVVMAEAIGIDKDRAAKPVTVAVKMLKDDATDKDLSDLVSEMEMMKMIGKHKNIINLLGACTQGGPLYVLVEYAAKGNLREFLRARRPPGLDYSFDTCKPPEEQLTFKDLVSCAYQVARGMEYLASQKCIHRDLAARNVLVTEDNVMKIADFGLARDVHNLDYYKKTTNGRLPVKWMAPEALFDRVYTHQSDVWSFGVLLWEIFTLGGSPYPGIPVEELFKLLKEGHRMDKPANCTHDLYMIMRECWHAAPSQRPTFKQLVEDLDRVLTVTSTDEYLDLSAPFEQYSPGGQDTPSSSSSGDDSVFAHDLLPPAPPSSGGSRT

[11] = target: Mitogen-activated protein kinase kinase kinase 8 (Homo sapiens) (UniProt P41279); assay: MAP3K8 Invitrogen selectivity data (BI); conditions: Compound concentration 3.0 uM
[12] = target: Adenosine receptor A3 (Homo sapiens) (UniProt P0DMS8); assay: A3/H Cerep selectivity data (BI); conditions: Compound concentration 20.0 uM
[13] = target: Tyrosine-protein kinase Blk (Homo sapiens) (UniProt P51451); assay: BLK Invitrogen selectivity data (BI); conditions: Compound concentration 3.0 uM
[14] = target: B2 bradykinin receptor (Homo sapiens) (UniProt P30411); assay: B2/HUM Cerep selectivity data (BI); conditions: Compound concentration 20.0 uM
Sequence of B2 bradykinin receptor (Homo sapiens) (P30411 whole entry): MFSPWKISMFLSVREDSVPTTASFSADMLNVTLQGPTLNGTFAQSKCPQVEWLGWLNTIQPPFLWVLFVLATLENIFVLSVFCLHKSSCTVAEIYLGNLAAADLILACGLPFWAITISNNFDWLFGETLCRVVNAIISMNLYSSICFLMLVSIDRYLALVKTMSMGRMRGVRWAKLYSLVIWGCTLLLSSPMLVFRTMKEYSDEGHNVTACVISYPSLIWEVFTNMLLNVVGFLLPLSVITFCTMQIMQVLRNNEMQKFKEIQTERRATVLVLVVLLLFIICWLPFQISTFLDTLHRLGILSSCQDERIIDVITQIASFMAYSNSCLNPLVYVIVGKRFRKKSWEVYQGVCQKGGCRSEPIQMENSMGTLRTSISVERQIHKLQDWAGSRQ

[15] = target: Gamma-aminobutyric acid receptor subunit alpha-1 (Rattus norvegicus) (UniProt P62813); assay: BZD/CENTR/R Cerep selectivity data (BI); conditions: Compound concentration 20.0 uM
[16] = target: T1, Serine/threonine-protein kinase Sgk2 (Homo sapiens) (UniProt Q9HBY8); assay: SGK2 Invitrogen selectivity data (BI); conditions: Compound concentration 3.0 uM
T1 sequence (whole entry): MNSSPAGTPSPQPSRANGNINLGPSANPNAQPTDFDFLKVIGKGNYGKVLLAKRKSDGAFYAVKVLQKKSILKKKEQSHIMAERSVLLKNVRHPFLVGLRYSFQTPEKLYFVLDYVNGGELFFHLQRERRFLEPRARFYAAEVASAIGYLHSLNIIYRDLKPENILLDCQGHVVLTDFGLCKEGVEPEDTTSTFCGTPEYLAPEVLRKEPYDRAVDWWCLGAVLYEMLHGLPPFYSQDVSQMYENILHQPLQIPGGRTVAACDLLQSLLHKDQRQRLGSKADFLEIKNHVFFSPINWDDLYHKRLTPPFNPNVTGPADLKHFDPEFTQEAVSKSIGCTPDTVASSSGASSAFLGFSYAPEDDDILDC

[17] = target: Wee1-like protein kinase (Homo sapiens) (UniProt P30291); assay: WEE1 Invitrogen selectivity data (BI); conditions: Compound concentration 3.0 uM
Sequence of Wee1-like protein kinase (Homo sapiens) (P30291 whole entry, looked up): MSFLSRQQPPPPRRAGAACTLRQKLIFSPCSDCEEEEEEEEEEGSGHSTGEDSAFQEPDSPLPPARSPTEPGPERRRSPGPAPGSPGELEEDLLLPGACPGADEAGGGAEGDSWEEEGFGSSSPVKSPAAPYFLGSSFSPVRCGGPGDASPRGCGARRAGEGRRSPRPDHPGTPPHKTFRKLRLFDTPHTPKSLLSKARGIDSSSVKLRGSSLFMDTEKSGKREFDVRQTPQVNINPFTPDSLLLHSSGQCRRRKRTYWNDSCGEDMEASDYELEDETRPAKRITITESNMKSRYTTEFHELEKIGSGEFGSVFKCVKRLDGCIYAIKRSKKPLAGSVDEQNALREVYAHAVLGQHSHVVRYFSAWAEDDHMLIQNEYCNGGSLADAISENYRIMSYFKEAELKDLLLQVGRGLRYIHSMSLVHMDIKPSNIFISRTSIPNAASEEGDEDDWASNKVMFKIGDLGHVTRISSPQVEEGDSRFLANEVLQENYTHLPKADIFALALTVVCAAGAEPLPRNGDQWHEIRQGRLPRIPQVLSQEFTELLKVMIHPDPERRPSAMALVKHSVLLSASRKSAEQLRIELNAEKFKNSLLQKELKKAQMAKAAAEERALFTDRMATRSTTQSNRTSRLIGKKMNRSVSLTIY

[18] = target: Macrophage-stimulating protein receptor (Homo sapiens) (UniProt Q04912); assay: MST1R Invitrogen selectivity data (BI); conditions: Compound concentration 3.0 uM
[19] = target: AMP-activated protein kinase (AMPK) alpha-1/beta-1/gamma-1 (Homo sapiens) (UniProt P54619+Q9Y478+Q13131); assay: AMPK A1B1G1 Invitrogen selectivity data (BI); format: protein-complex assay; conditions: Compound concentration 3.0 uM
[20] = target: T2, Dual specificity mitogen-activated protein kinase kinase 6 (Homo sapiens) (UniProt P52564); assay: MAP2K6 Invitrogen selectivity data (BI); conditions: Compound concentration 3.0 uM
T2 sequence (whole entry): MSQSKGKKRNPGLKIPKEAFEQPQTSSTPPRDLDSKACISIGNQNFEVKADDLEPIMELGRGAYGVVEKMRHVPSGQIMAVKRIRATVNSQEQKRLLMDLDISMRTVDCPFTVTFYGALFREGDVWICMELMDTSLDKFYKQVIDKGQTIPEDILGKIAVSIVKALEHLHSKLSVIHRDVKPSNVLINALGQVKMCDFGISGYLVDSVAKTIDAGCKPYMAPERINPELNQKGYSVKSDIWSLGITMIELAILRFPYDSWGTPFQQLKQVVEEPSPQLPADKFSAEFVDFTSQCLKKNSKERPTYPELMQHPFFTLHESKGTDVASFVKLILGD

[21] = target: Serine/threonine-protein kinase 26 (Homo sapiens) (UniProt Q9P289); assay: MST4 Invitrogen selectivity data (BI); conditions: Compound concentration 3.0 uM
[22] = target: MAP kinase-activated protein kinase 3 (Homo sapiens) (UniProt Q16644); assay: MAPKAPK3 Invitrogen selectivity data (BI); conditions: Compound concentration 3.0 uM
Sequence of MAP kinase-activated protein kinase 3 (Homo sapiens) (Q16644 whole entry, looked up): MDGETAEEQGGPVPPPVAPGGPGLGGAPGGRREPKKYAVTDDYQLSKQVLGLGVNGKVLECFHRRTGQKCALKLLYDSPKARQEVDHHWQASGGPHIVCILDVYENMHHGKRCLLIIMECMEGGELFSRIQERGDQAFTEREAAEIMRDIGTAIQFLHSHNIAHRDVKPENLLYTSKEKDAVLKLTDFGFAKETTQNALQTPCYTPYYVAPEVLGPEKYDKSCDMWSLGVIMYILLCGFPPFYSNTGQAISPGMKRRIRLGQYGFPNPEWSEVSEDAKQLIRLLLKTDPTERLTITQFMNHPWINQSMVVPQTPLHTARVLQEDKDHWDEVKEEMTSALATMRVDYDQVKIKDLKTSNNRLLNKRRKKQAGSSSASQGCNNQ

[23] = target: SRSF protein kinase 1 (Homo sapiens) (UniProt Q96SB4); assay: SRPK1 Invitrogen selectivity data (BI); conditions: Compound concentration 3.0 uM
[24] = target: Casein kinase I isoform gamma-1 (Homo sapiens) (UniProt Q9HCP0); assay: CSNK1G1 Invitrogen selectivity data (BI); conditions: Compound concentration 3.0 uM
Sequence of Casein kinase I isoform gamma-1 (Homo sapiens) (Q9HCP0 whole entry, looked up, canonical isoform): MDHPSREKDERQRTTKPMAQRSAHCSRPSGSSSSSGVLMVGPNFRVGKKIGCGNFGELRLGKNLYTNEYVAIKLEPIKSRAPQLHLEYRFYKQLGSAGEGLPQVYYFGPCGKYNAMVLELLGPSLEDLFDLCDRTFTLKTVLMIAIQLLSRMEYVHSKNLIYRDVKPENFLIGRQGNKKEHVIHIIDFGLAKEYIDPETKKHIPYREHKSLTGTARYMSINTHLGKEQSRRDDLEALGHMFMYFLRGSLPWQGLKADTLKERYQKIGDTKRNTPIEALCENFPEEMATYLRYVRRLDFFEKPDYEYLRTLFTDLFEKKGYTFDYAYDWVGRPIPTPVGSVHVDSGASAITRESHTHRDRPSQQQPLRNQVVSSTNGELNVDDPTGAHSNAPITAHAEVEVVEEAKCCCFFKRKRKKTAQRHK

[25] = target: Calcium/calmodulin-dependent protein kinase type II subunit delta (Homo sapiens) (UniProt Q13557); assay: CAMK2D Invitrogen selectivity data (BI); conditions: Compound concentration 3.0 uM

CN(C)C(=O)Cn1cc(-c2nc(C3(c4ccc(-c5cnc(N)nc5)cc4)CC3)no2)cn1 [BI 0153]
inhibition [1]: 6.54%

CN(C)C(=O)Cn1cc(-c2nc([C@@](C)(c3ccc(-c4cnc(N)nc4)cc3)C3CC3)no2)cn1 [BI 665915]
activity at 20 µM [2]: 90% (not active)
residual activity [3]: 108%
residual activity [4]: 97%
residual activity [5]: 102%
residual activity [6]: 95%
residual activity [7]: 98.5%
residual activity [8]: 96%
residual activity [9]: 75%
residual activity [10]: 95.5%
residual activity [11]: 93.5%
residual activity [12]: 64%
residual activity [13]: 88.5%
residual activity [14]: 102%
residual activity [15]: 117%
residual activity [16]: 97%
residual activity [17]: 100%
residual activity [18]: 95%
residual activity [19]: 104%
residual activity [20]: 103%
residual activity [21]: 99%
residual activity [22]: 98.5%
residual activity [23]: 97.5%
residual activity [24]: 97.5%
residual activity [25]: 94.5%
